Columns and labels:
[1] = target: T1, recombinant hexose oxidase from Pichia pastoris (Chondrus crispus, UniProt P93762); assay: Substrate specificity of recombinant hexose oxidase (o-dianisidine/peroxidase assay); type: biochemical; settings: sugar at a final concentration of 0.1 M; recombinant hexose oxidase expressed in Pichia pastoris
T1 construct: the entire hexose oxidase gene was amplified and isolated from at least three independent PCR amplifications; made in house; host or cells: Pichia pastoris KM71 with plasmid pUPO153 (pPIC3 vector), intracellular
T1 sequence (P93762 4-337 limits assumed): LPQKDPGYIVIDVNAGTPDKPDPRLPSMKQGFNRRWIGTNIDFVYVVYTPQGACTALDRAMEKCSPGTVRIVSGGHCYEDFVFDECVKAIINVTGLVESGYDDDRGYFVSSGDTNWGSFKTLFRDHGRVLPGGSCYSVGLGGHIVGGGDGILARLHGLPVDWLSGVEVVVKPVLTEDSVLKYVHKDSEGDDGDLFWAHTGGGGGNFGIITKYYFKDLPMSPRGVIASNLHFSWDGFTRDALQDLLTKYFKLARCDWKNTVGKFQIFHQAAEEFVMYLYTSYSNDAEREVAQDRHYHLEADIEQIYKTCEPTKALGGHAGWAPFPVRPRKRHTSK
T1 sequence (P93762 338-546 limits assumed): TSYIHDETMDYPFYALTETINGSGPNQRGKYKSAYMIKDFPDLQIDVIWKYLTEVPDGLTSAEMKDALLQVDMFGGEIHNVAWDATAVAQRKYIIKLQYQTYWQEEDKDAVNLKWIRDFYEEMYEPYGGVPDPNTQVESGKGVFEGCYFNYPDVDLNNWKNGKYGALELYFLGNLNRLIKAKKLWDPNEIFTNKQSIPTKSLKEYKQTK
Protocol: (§1) The procedure used was essentially as described by Sullivan and Ikawa, 1973. This assay is based on the principle that the hydrogen peroxide formed in the oxidation of the sugar in the presence of peroxidase reacts with the chromogenic substance, o-dianisidine to form a dye with absorbance at 402 nm.
(§2) The assay mixture consisted of 1-40 μl of enzyme sample and 850 μl of an assay solution containing 370 μl of 0.1 M sodium phosphate buffer, pH 7.0; 462 μl of 0.1 M D-glucose in 0.1 M sodium phosphate buffer, pH 7.0; 9 μl of horse radish peroxidase, 0.1 mg/ml in water (Sigma Chemicals, cat. no. P 6782 or Boehringer Mannheim, cat. no. 814 393); and 9 μl of o-dianisidine.2HCl, 3.0 mg/ml in water (3,3′-dimethoxybenzidine, Sigma Chemicals). After incubation at room temperature for 15 or 30 minutes the assay was stopped by addition of one drop of 37% HCl (Merck, p.a.). Samples of 100 μl were transferred from the assay tubes to the wells of a microtiter plate (NUNC, Denmark) and the absorbance at 410 nm was read on a Titertek Multiskan II PLUS plate reader (Labsystems/Flow Laboratories, Finland). To ensure that the observed activity was due to hexose oxidase—and not glucose oxidase—the assay was occasionally performed with D-galactose as the substrate instead of D-glucose.
(§3) The substrate specificity of recombinant hexose oxidase from Pichia pastoris and native hexose oxidase from Chondrus crispus was compared using a number of sugars at a final concentration of 0.1 M in the assay described above.

[2] = target: T2, native hexose oxidase from Chondrus crispus (Chondrus crispus, UniProt P93762); assay: Substrate specificity of native hexose oxidase (o-dianisidine/peroxidase assay); type: biochemical; settings: sugar at a final concentration of 0.1 M
T2 construct: the native form isolated from Chondrus crispus; from tissue; host or cells: Chondrus crispus (red alga) fronds
T2 sequence (P93762 4-337 limits assumed): T1 sequence (P93762 4-337 limits assumed)
T2 sequence (P93762 338-546 limits assumed): T1 sequence (P93762 338-546 limits assumed)
Protocol: as §1, §2, §3

[3] = target: T3, native hexose oxidase from Chondrus crispus (Chondrus crispus, UniProt P93762); settings: literature data; cited from earlier work
T3 sequence (P93762 1-546): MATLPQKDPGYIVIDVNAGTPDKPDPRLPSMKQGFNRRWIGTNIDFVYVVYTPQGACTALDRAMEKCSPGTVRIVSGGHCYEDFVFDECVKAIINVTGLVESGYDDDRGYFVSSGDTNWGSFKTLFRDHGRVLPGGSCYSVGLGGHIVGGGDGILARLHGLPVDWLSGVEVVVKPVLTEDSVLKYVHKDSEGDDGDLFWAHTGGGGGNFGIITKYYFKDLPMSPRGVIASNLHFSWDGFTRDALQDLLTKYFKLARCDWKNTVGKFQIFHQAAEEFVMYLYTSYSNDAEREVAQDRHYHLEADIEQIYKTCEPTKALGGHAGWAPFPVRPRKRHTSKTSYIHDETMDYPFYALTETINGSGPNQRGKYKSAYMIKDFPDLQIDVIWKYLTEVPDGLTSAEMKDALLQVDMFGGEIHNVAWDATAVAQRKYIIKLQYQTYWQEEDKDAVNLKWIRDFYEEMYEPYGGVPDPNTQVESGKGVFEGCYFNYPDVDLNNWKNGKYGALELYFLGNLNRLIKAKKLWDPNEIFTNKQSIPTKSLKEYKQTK

[4] = target: T1, recombinant hexose oxidase from Pichia pastoris; assay: Inhibition of recombinant hexose oxidase by sodium diethyldithiocarbamate; type: biochemical; settings: read-out: Inhibition (%), Recombinant enzyme
Protocol: as §1
as §2, with “D-glucose. […]” for “D-glucose.”

[5] = target: T2, native hexose oxidase from Chondrus crispus; assay: Inhibition of native hexose oxidase by sodium diethyldithiocarbamate; type: biochemical; settings: read-out: Inhibition (%), Native enzyme
Protocol: as §1
as §2, with “D-glucose. […]” for “D-glucose.”

[6] = target: T4, hexose oxidase from Chondrus crispus (Chondrus crispus, UniProt P93762); settings: reported by Sullivan and Ikawa (1973); cited from earlier work
T4 sequence (P93762 1-546): T3 sequence (P93762 1-546)

O=C[C@H](O)[C@@H](O)[C@H](O[C@@H]1O[C@H](CO)[C@@H](O)[C@H](O)[C@H]1O)[C@H](O)CO [Cellobiose]
Relative rate, recombinant enzyme [1]: 51
Relative rate, native enzyme, this work [2]: 33
Relative rate, native enzyme, Sullivan and Ikawa, 1973 [3]: 32

O=C[C@H](O)[C@@H](O)[C@@H](O)[C@H](O)CO [D-Galactose]
Relative rate, recombinant enzyme [1]: 75
Relative rate, native enzyme, this work [2]: 75
Relative rate, native enzyme, Sullivan and Ikawa, 1973 [3]: 82

O=C[C@H](O)[C@@H](O)[C@H](O)[C@H](O)CO [D-Glucose]
Relative rate, recombinant enzyme [1]: 100
Relative rate, native enzyme, this work [2]: 100
Relative rate, native enzyme, Sullivan and Ikawa, 1973 [3]: 100

OC[C@H]1O[C@@H](O[C@H]2[C@H](O)[C@@H](O)C(O)O[C@@H]2CO)[C@H](O)[C@@H](O)[C@H]1O (some centres unmarked) [Lactose]
Relative rate, recombinant enzyme [1]: 38
Relative rate, native enzyme, this work [2]: 25
Relative rate, native enzyme, Sullivan and Ikawa, 1973 [3]: 22

OC[C@H]1O[C@H](O[C@H]2[C@H](O)[C@@H](O)[C@H](O)O[C@@H]2CO)[C@H](O)[C@@H](O)[C@@H]1O [Maltose]
Relative rate, recombinant enzyme [1]: 57
Relative rate, native enzyme, this work [2]: 37
Relative rate, native enzyme, Sullivan and Ikawa, 1973 [3]: 40

CCN(CC)C(=S)[S-].[Na+] [sodium diethyldithiocarbamate]
inhibition at 10 µM ([4]; concentration of inhibitor 0.01 mM): 39%
inhibition at 100 µM ([4]; concentration of inhibitor 0.1 mM): 96%
inhibition at 10 µM [5]: 41%
inhibition at 100 µM [5]: 95%
Inhibition of hexose oxidase (in words) [6]: strongly inhibited

Source: US6924366B2, “Recombinant hexose oxidase, a method of producing same and use of such enzyme” (Bioteknologisk Institut, priority 1995, dated 2005)
